Data: paper PMC6789647, “α-Glucosidase Inhibitory Activity of Cycloartane-Type Triterpenes Isolated from Indonesian Stingless Bee Propolis and Their Structure–Activity Relationship” (Pharmaceuticals, 2019)

Key:
[1] = DPPH free radical scavenging activity; conditions: means ± SEs, n = 3; for DPPH IC50 / IC50: isolated compounds
Protocol: The antioxidative activities of the fractions were assayed for the scavenging of 2,2-diphenyl-1-picrylhydrazyl (DPPH) (Sigma-Aldrich, Darmstadt, Germany). Free radicals were assayed using a previously reported method [48] with some modifications. The fractions of EEP, isolated compounds and Trolox (Sigma-Aldrich, Darmstadt, Germany) were dissolved in methanol to make a 50 ppm solution. Each of the test sample solutions (0, 20, 40, 60, 80, and 100 µL) were added into a mixture (0.9 mL) of 0.4 mM DPPH solution, 20% methanol aqueous solution, and 0.2 M MES (2-(N-morpholino) ethanesulfonic acid) (Dojindo, Wako Junyaku Kogyo Co., Ltd., Osaka, Japan) buffer solution (1:1:1). The resulting mixtures were shaken on a vortex mixer and allowed to stand for 20 min. The absorbance of the remaining DPPH was measured with a microplate reader (Biotech, Tokyo, Japan) at 520 nm. […] The inhibitory concentration that results in 50% scavenging of DPPH radicals (IC50) was estimated based on the plot of inhibition versus the final concentration of the propolis samples. The results are expressed in µg Trolox Equivalents (TE) per mL.

α-glucosidase [2] = biological target: α-glucosidase (Saccharomyces cerevisiae, UniProt P53341); assay: Determination of inhibitory type by kinetic analysis (Lineweaver–Burk, Dixon plots); assay type: biochemical; conditions: for Inhibition Mode: Lineweaver–Burk plot, inhibitor 0, 0.2, 2 µg/mL, p-NPG substrate; for Ki’: mixed inhibition, affinity for enzyme–substrate
Chain of α-glucosidase (Saccharomyces cerevisiae, UniProt P53341) (P53341 whole entry): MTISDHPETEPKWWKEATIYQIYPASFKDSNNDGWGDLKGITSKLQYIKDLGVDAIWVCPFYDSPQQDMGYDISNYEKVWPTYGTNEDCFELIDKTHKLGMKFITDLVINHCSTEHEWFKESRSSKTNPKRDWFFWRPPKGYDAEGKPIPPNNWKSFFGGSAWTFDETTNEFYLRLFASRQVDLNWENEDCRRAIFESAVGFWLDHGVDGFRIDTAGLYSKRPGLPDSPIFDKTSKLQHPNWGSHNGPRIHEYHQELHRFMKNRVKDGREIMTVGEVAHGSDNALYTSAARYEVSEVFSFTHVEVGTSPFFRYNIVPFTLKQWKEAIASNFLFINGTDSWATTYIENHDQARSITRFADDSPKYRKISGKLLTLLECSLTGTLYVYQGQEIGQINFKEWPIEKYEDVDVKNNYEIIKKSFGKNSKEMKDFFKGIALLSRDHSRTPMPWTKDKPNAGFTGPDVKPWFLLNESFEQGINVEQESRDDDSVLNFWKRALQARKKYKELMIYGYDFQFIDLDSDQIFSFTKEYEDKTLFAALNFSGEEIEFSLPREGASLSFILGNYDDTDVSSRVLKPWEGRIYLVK
Protocol: Inhibitory mechanisms of isolated triterpenes against α-glucosidase at some concentrations (0, 0.2, and 2 µg/mL) were analyzed by the Lineweaver–Burk plot (Figure 2 and Figure 3).
The inhibition activity of isolated triterpenes against α-glucosidase was measured with different concentrations (0, 1, 2.5, 5, and 10 mM) of p-NPG as a substrate in the presence or absence of different concentrations (0, 0.2, and 2 µg/mL) of the compounds. The mode of inhibition was then determined by Lineweaver–Burk plot analysis, which was calculated using Michaelis–Menten kinetics. Inhibition constants (Ki) were determined by analysis of Dixon plots and plots of the Y-intercept of the Lineweaver–Burk plot versus the inhibitor [44, 49]. All data are expressed as means ± standard errors of triplicate determinations.

[3] = system: α-glucosidase from the rat small intestine; assay: Inhibitory activity assay for rat intestinal α-glucosidase; assay type: biochemical; conditions: for IC50: rat small intestine α-glucosidase, means ± SEs, n = 3, ND: not detected, isolated compounds tested at 0.1–10 µg/mL
Protocol: In a centrifuge tube at 4 °C, 200 mg of rat intestine acetone granules (Sigma-Aldrich, Tokyo, Japan) was placed in 8 mL of physiological saline (0.9 g of NaCl was dissolved in 100 mL pure water). The resulting suspension was homogenized with sonication equipment (Branson, Danbury, CT, USA) for 60 s (ultrasonic treatment cycles: 50, output control: 5) in an ice bath. The resulting homogenate was centrifuged (14,400× g, −21 °C for 20 min) with a high-speed refrigerated centrifuge (Himac CR21N, Hitachi Koki Co, Ltd., Tokyo, Japan). The resulting supernatant was used as an enzyme preparation, and stored at −30 °C until use. Then the measurement of inhibitory activity of isolated compounds against α-glucosidase from the rat small intestine followed the method used to measure the activity of yeast enzymes (S. cerevisiae). The concentration of the isolated compounds used is 0.1–10 µg/mL (0.2–23 µM).

[4] = biological target: α-glucosidase from Saccharomyces cerevisiae (Saccharomyces cerevisiae, UniProt P53341); assay: Inhibitory activity assay for yeast α-glucosidase (pNPG substrate); assay type: biochemical
Chain of α-glucosidase from Saccharomyces cerevisiae (P53341 whole entry): as above
Protocol: The inhibitory activity of α-glucosidase from Saccharomyces cerevisiae (Sigma-Aldrich, Tokyo, Japan) of the isolation compounds was determined using a previously reported procedure with modifications. p-Nitrophenyl α-glucopyranoside (pNPG) (Sigma-Aldrich, Tokyo, Japan) was used as a substrate. Other chemicals used were of analytical grade. […] Then, 40 µL of 3 mM pNPG solution was added, and the mixture was incubated at 37 °C for 20 min. The reaction was stopped by adding a solution of Na2CO3 (0.1 M, 200 µL), and the absorbance (at 405 nm) of the resulting solution was measured via an Epoch microplate reader (Biotech, Tokyo, Japan). All experiments were performed in three independent replicates. The inhibition of isolated compounds on α-glucosidase was calculated as follows:(2) Inhibition (%)=(1−A1/A0)×100 where A0 is the absorbance of the control, and A1 is the absorbance of the propolis samples. The IC50 values were determined as the half-maximal inhibitory concentration of the inhibitor (isolated compound) which provides 50% inhibition.

α-glucosidase [5] = conditions: cited from earlier work

| Compound | DPPH IC50 [1] | IC50 [1] | Inhibition Mode (α-glucosidase [2]) | Ki’ (α-glucosidase [2]) | inhibitory activity against α-glucosidase from the rat small intestine, in words [3] | other results |
| --- | --- | --- | --- | --- | --- | --- |
| C/C(=C\CC[C@@H](C)[C@H]1CC[C@@]2(C)[C@@H]3CC[C@H]4C(C)(C)C(=O)CC[C@@]45C[C@@]35CC[C@]12C)C(=O)O [Mangiferonic acid (4), mangiferonic acid] | 17.16 ± 2.98 µg/mL | 37.7 ± 6.55 µM | Mixed inhibition | 3.23 µM |  | Inhibition Mode (α-glucosidase [2]; listed as 4): mixed-type inhibition |
| Cc1c(C)c2c(c(C)c1O)CCC(C)(C(=O)O)O2 (centres unmarked) [Trolox, reference compound] | 7.17 ± 0.13 µg/mL | 28.6 ± 0.52 µM |  |  |  | Antioxidant Activity IC50 ([1]; DPPH, propolis fractions P1 and P2): 6.76 ± 0.395 µg/mL |
| C=C(CCC(C)C1CCC2(C)C3CCC4C(C)(C)C(=O)CCC45CC35CCC12C)C(C)C(=O)O (centres unmarked) [Ambonic acid (3), ambonic acid] | 42.45 ± 4.5 µg/mL | 90.6 ± 9.6 µM | Mixed inhibition | 6.42 µM |  | Inhibition Mode (α-glucosidase [2]; listed as 3): mixed-type inhibition |
| C[C@H]1O[C@H](O[C@H]2[C@H](O)[C@@H](O)[C@@H](O[C@H]3[C@H](O)[C@@H](O)C(O)O[C@@H]3CO)O[C@@H]2CO)[C@H](O)[C@@H](O)[C@@H]1N[C@H]1C=C(CO)[C@@H](O)[C@H](O)[C@H]1O (some centres unmarked) [Acarbose] |  |  |  |  | very high inhibitory activity | IC50 [3]: 209 ± 0.96 µM; inhibitory activity against α-glucosidase from the yeast (S. cerevisiae), in words [4]: no activity at all |
| C=C(CC[C@@H](C)[C@H]1CC[C@@]2(C)[C@@H]3CC[C@H]4C(C)(C)C(=O)CC[C@@]45C[C@@]35CC[C@]12C)C(C)C [24-methylenecycloartenone] |  |  |  |  |  | IC50 (α-glucosidase [5]; isolated from Schisandra chinensis, read-out: IC50 against α-glucosidase): 2360 nM |
| C/C(=C\CC[C@@H](C)[C@H]1CC[C@@]2(C)[C@@H]3CC[C@H]4C(C)(C)[C@@H](O)CC[C@@]45C[C@@]35CC[C@]12C)C(=O)O [Mangiferolic acid (1), mangiferolic acid] | 12.38 ± 3.0 µg/mL | 27.1 ± 6.57 µM | Uncompetitive |  |  | Inhibition Mode (α-glucosidase [2]; listed as 1): uncompetitive inhibition |
| Oc1cc(O)c2c(c1)O[C@H](c1ccc(O)c(O)c1)[C@H](O)C2 [(–)-Epicatechin] |  |  |  |  | no inhibitory activity | inhibitory value on α-glucosidase (α-glucosidase [5]): around 96%; inhibitory activity against α-glucosidase from the yeast (S. cerevisiae), in words [4]: showed inhibitory activity |
| CC(C)=CCC[C@@H](C)[C@H]1CC[C@@]2(C)[C@@H]3CC[C@H]4C(C)(C)[C@@H](O)CC[C@@]45C[C@@]35CC[C@]12C [Cycloartenol (2), cycloartenol] | 120.21 ± 11.2 µg/mL | 282 ± 26.3 µM | Uncompetitive |  |  | Inhibition Mode (α-glucosidase [2]; listed as 2): uncompetitive inhibition |
| C=C(CCC(C)C1CCC2(C)C3CCC4C(C)(C)C(O)CCC45CC35CCC12C)C(C)C(=O)O (centres unmarked) [Ambolic acid (5), ambolic acid] | 132.30 ± 13.9 µg/mL | 281 ± 29.5 µM | Mixed inhibition | 4.58 µM |  | Inhibition Mode (α-glucosidase [2]; listed as 5): mixed-type inhibition |
| OCC(CO)N[C@H]1C[C@](O)(CO)[C@@H](O)[C@H](O)[C@H]1O [Voglibose] |  |  |  |  | very high inhibitory activity | IC50 [3]: 78.6 ± 1.27 µM |
